{"source": "patent US6635802B1", "about": "“Nuclear transfer using cells cultured in serum starvation media containing apoptosis inhibitors” (The Texas A&M University System, priority 2000, dated 2003)", "type_in_all_cases": "cell-based", "key": {"porcine PGCs [1]": {"test_system": "porcine PGCs", "assay": "In vitro culture of porcine PGCs on STO feeder cells with apoptosis inhibitors; AP-stained colonies counted", "settings": "Table 6 protease inhibitors: MAC 0.7 pM, PA 50 μM, AEBSF 250 μM, TLCK 100 μM; normalized to control"}, "porcine PGCs [2]": {"test_system": "porcine PGCs", "assay": "In vitro culture of porcine PGCs on STO feeder cells with apoptosis inhibitors; AP-stained colonies counted", "settings": "for Effect on the number of PGCs, in words: single concentrations of Tables 6 and 7; for Normalized # of Colonies + SE: Table 7 antioxidants: NAC 1.0 mM, BHA 0.1 mM, BPN 1.0 mM, CIM 2.0 mM, normalized to control", "description": "Porcine fetuses were collected from hysterectomized uteri of four-way crossbred gilts (DeKalb, Ill.) between day 25 and 30 of pregnancy (estrus=day 0). Fetuses were washed in phosphate buffered saline supplemented with BSA (0.4%, Sigma St. Louis, Mo.) and penicillin/streptomycin (1%, Gibco BRL, Rockville, Md.) (PBS/BSA/PS). Urogenital ridges, appeared as longitudinal protrusions along the medial mesonephric surface, were isolated and washed in PBS/BSA/PS followed by several washes in PES medium before PGC collection. The PES medium was comprised of 50:50 mixture of Dulbecco's modified Eagle's medium (DMEM) and Ham's F10 medium supplemented with 15% fetal bovine serum (FBS), L-glutamine (2 mM), β-mercaptoethanol (0.1 mM), MEM non-essential amino acids (1%) and penicillin/streptomycin (1%). All media and supplements were purchased from Gibco BRL.\nPGCs were isolated by incubation in 0.25% trypsin/1 mM EDTA solution (Gibco BRL) followed by gentle pipetting or by mechanical dissociation of ridges into small fragments followed by gentle pipetting. After tissue disruption, cells were centrifuged for 5 minutes at 250 rpm to remove tissue debris and clumps. The supernatant containing most the single cells was collected and centrifuged at 1000 rpm for 10 minutes.\nPGCs were resuspended with PES medium containing cytokines, such as soluble recombinant human stem cell factor (SCF; 40 ng/ml), human basic fibroblast growth factor (bFGF; 20 ng/ml), and human leukemia inhibitory factor (LIF; 20 ng/ml). All cytokines were obtained from R&D Systems (Minneapolis, Minn.). Cell suspensions were plated on irradiated mouse STO feeder cells (3×10^6 cells per 35 mm well), prepared as previously described (Piedrahita et al., 1998) and cultured in humidified environment of 5% CO2 in air, 38° C. PGC-derived colonies with ES-like morphology after 7-10 days of culture are passaged to fresh feeders for establishment of cell lines. PGC-derived colonies were dissociated with 0.25% trypsin/1 mM EDTA (Gibco BRL) for 10 minutes. […] To identify PGC-derived cells and the state of differentiation were determined by morphology and by expression of alkaline phosphatase (AP).\nAP activity was determined as described previously (Moore and Piedrahita, 1997). Briefly, culture plates were rinsed twice in PBS and fixed in 4% formaldehyde in PBS for 15 minutes at room temperature. Fixed cells were washed twice with PBS and stained in naphtol AS-MX phosphate (200 μg/ml; Sigma) and Fast Red TR salt (1 mg/ml; Sigma) in 100 mM Tris buffer, pH 8.2 for 30 minutes at room temperature. Staining was terminated by washing cultures in PBS. Specificity of AP activity was determined by staining in the presence of the AP inhibitor, tetramisole (500 μM; Sigma). Mouse ES cells also were stained as control for AP activity.\nTo determine the effect of apoptosis inhibitors on survival of porcine PGCs in vitro, freshly isolated PGCs were cultured as described above with or without apoptosis inhibitors, α2-macroglobulin (MAC: broad range protease inhibitor, 1.4 pM) and N-acetylcysteine (NAC: antioxidant, 1 mM). After 7-10 days of culture, colonies were stained for AP activity and counted. Studies were performed at least three replicates. The data were normalized to the treatment with no inhibitors added (control) and tested for homogeneity of variance and analyzed by ANOVA. Mean separation is accomplished by Fisher's protected LSD using software SuperANOVA (Abacus Concepts).\nDose titration of MAC (0.35, 0.7, 1.4, and 2.8 pM) and NAC (0.25, 0.5, 1.0, and 2.0 mM), to determine the optimal concentration of inhibitors, were performed."}, "[3]": {"test_system": "Bovine embryonic fibroblasts (BEF)", "assay": "Cell cycle distribution (propidium iodide flow cytometry) of serum starved bovine embryonic fibroblasts", "description": "(§1) Bovine embryonic fibroblasts (BEF) were isolated from the fetus with 3-5 cm crown-rump length. After two or three passages, cells were plated one million cells per plate (100 mm) with growth medium (DMEM) with 2 mM L-glutamine, 0.1 mM β-mercaptoethanol and 10% FBS. After 24 hours, cells were washed with PBS 3-5 times and then serum starvation medium with 0.5% FBS was added. In addition, cells were treated with serum starvation medium containing apoptosis inhibitors such as a2-macroglobulin (0.7 pM), N-acetylcysteine (1 mM) and glutathione (2 mM). Cells were treated with serum starvation with or without apoptosis inhibitors for 5 or 10 days. Then cells were trypsinized and counted.\n(§2) Cells (1×10^6) were washed in 0.15 M NaCI, fixed in 70% ethanol, and stored at −20° C. overnight or until ready to be analyzed. For analysis, cells were centrifuged, rinsed with PBS, resuspended in 500 μl of a 0.05 mg/ml propidium iodide/0.1% Triton X-100/0.2 mg/ml RNase A solution, and incubated for a minimum of 30 minutes at room temperature in the dark. Cells were analyzed by flow cytometry to determine DNA content. Modfit LT™ (Verity Software House, Topsham, Me.) was used to model the cell cycle distribution within each sample."}, "[4]": {"test_system": "Bovine embryonic fibroblasts (BEF)", "assay": "TUNEL assay (flow cytometry) of serum starved bovine embryonic fibroblasts", "settings": "MAC 0.7 pM, NAC 1 mM, GSH 2 mM", "description": "as §1\nAfter counting, cells were fixed and stained according to protocols with the APO-BRDU kit (Phoenix Flow Systems, San Diego, Calif.). Briefly, cells were fixed in 1% paraformaldehyde in PBS on ice for 15 minutes, washed in PBS, and fixed in 70% ethanol and stored at −20° C. until use. After removing the fixative, cells were washed twice and suspended in 50 μl of labeling solution containing Br-dUTP (bromolated deoxyuridine triphosphate) and TdT (terminal deoxynucleotidyl transferase) for 60 minutes at 37° C. TdT catalyzes the addition of Br-dUTP to the 3′-OH ends of DNA strand breaks in a template independent manner. To determine base line fluorescence, control cells were incubated without TdT. After rinsing, cells were incubated with an anti-BrdU monoclonal antibody conjugated to fluorescein for 30 minutes in the dark at room temperature; apoptotic cells which contain many free 3′-OH ends are intensely labeled, while non-apoptotic cells whose DNA is largely intact have little Br-dUTP incorporation and remain unlabeled. Following counterstaining with a propidium iodide/RNase A solution for 30 minutes in the dark, which allows simultaneous analysis of cell cycle position and apoptosis, cells were analyzed on a FACSCalibur™ flow cytometer (Becton Dickinson, San Jose, Calif.). Fluorescence emissions were measured at 582±21 nm for propidium iodide and 530±15 nm for fluorescein, without spectral compensation, after excitation at 488 nm by an argon-ion laser. For analysis, gates were set so that less than 2% of samples incubated without TdT were positive. Any event above this gate was deemed TUNEL positive for samples incubated with TdT."}, "[5]": {"test_system": "Porcine embryonic fibroblast (PEF)", "assay": "TUNEL assay (flow cytometry) of serum starved porcine embryonic fibroblasts", "settings": "serum starvation 5 days, MAC 0.7 pM, NAC 1 mM, GSH 2 mM, serum starved without inhibitor 26.50", "description": "(§3) Porcine embryonic fibroblast (PEF) were isolated from day 25-28 fetuses according to the methods previously described (Hogan et al., 1994). Briefly, porcine fetuses of day 25-30 (day 0=estrus) were removed from the uterus and rinsed with PBS+penicillin/streptomycin solution (PBS/PS). Head, limbs and internal organs were removed, and the carcasses were minced with razor blades or ground using a syringe head until they were the consistency of sludge. Then these were trypsinized 2-3 times using 0.25% trypsin+EDTA for 20 minutes. The supernatant fraction was removed and centrifuged to collect the cells. The cells were plated using DMEM+10% fetal bovine serum (FBS) and cultured up to 80-90% confluency before further passage.\nas §1\nAfter counting, cells were fixed and stained according to protocols with the APO-BRDU kit (Phoenix Flow Systems, San Diego, Calif.). […] To determine base line fluorescence, control cells were incubated without TdT. […] Following counterstaining with a propidium iodide/RNase A solution for 30 minutes in the dark, which allows simultaneous analysis of cell cycle position and apoptosis, cells were analyzed on a FACSCalibur™ flow cytometer (Becton Dickinson, San Jose, Calif.). Fluorescence emissions were measured at 582±21 nm for propidium iodide and 530±15 nm for fluorescein, without spectral compensation, after excitation at 488 nm by an argon-ion laser. […]"}, "[6]": {"test_system": "Porcine embryonic fibroblast (PEF)", "assay": "Cell cycle distribution (propidium iodide flow cytometry) of serum starved porcine embryonic fibroblasts", "description": "as §3, §1, §2"}, "[7]": {"settings": "addition during the starvation period"}, "[8]": {"settings": "serum starvation 5 days, MAC 0.7 pM, NAC 1 mM, GSH 2 mM"}}, "note": "Where a SMILES comes first, the peptide text is derived from it. [ ]: non-standard residue; d: D form. The star is where a group is joined. Sta = CC(C)C[C@H](N)[C@@H](O)CC(=O)O; Isovaleryl = CC(C)CC(=O)*"}
{"compound": "NCCc1ccc(S(=O)(=O)F)cc1", "note": "[AEBSF, 4-(2-aminoethyl)benzenesulfonyl fluoride]", "values": [{"measurement": "Normalized # of Colonies + SE", "setting": "porcine PGCs [1]", "result": "1.14 ± 0.07"}, {"measurement": "Effect on the number of PGCs, in words", "setting": "porcine PGCs [2]", "result": "positive effect"}]}
{"compound": "COc1ccc(O)c(C(C)(C)C)c1", "note": "[BHA, butylated hydroxyanisole]", "values": [{"measurement": "Normalized # of Colonies + SE", "setting": "porcine PGCs [2]", "result": "2.48 ± 0.27"}]}
{"compound": "CC(C)(C)[N+]([O-])=Cc1ccccc1", "note": "[BPN, N-t-butyl-α-phenylnitrone]", "values": [{"measurement": "Normalized # of Colonies + SE", "setting": "porcine PGCs [2]", "result": "1.95 ± 0.17"}]}
{"compound": "CN/C(=N/CCSCc1nc[nH]c1C)NC#N", "note": "[CIM, cimetidine]", "values": [{"measurement": "Normalized # of Colonies + SE", "setting": "porcine PGCs [2]", "result": "1.95 ± 0.05"}]}
{"compound": "N[C@@H](CCC(=O)N[C@@H](CS)C(=O)NCC(=O)O)C(=O)O", "note": "[GSH, glutathione]", "values": [{"measurement": "Proportion of cells going into G0, in words", "setting": "[3]; [7]", "result": "did not affect the proportion of cells going into G0"}, {"measurement": "G2/M (%)", "setting": "[3]; [8]", "result": 10, "unit": "%"}, {"measurement": "S (%)", "setting": "[3]; [8]", "result": 4, "unit": "%"}, {"measurement": "G0/G1 (%)", "setting": "[3]; serum starvation (0.5% FBS) 5 days, MAC 0.7 pM, NAC 1 mM, GSH 2 mM", "result": 86, "unit": "%"}, {"measurement": "5-day Apoptosis (%)", "setting": "[4]; serum starvation 5 days, serum starved without inhibitor 15.0", "result": 1.5, "unit": "%"}, {"measurement": "10-day Apoptosis (%)", "setting": "[4]; serum starvation 10 days, serum starved without inhibitor 20.4", "result": 0.8, "unit": "%"}, {"measurement": "5-day Apoptosis (%)", "setting": "[5]", "result": 0.12, "unit": "%"}, {"measurement": "Proportion of cells going into G0, in words", "setting": "[6]; [7]", "result": "did not affect the proportion of cells going into G0"}, {"measurement": "G0/G1 (%)", "setting": "[6]; [8]", "result": 95, "unit": "%"}, {"measurement": "G2/M (%)", "setting": "[6]; [8]", "result": 3, "unit": "%"}, {"measurement": "S (%)", "setting": "[6]; [8]", "result": 2, "unit": "%"}]}
{"compound": "CC(C)CC(=O)N[C@H](C(=O)N[C@H](C(=O)N[C@@H](CC(C)C)[C@@H](O)CC(=O)N[C@@H](C)C(=O)N[C@@H](CC(C)C)[C@@H](O)CC(=O)O)C(C)C)C(C)C", "note": "[PA, pepstatin A] (Isovaleryl-VV[Sta]A[Sta]-OH)", "values": [{"measurement": "Normalized # of Colonies + SE", "setting": "porcine PGCs [1]", "result": "0.85 ± 0.13"}]}
{"compound": "Cc1ccc(S(=O)(=O)N[C@@H](CCCCN)C(=O)CCl)cc1", "note": "[TLCK, Nα-p-tosyl-L-lysine chloromethyl ketone]", "values": [{"measurement": "Normalized # of Colonies + SE", "setting": "porcine PGCs [1]", "result": "1.21 ± 0.10"}, {"measurement": "Effect on the number of PGCs, in words", "setting": "porcine PGCs [2]", "result": "positive effect"}]}
